{"source": "patent US6013660A", "about": "(priority 1996, dated 2000)", "key": {"M. tuberculosis Erdman [1]": {"test_system": "M. tuberculosis Erdman", "assay": "M. tuberculosis Erdman growth in broth, various concentrations of inhibitor (Examples 5, 12)", "type": "cell-based, Mycobacterium tuberculosis", "conditions": "for inhibitory effect on M. tuberculosis growth (comparison of known GS inhibitors): relative to L-methionine-S-sulfoximine"}, "M. tuberculosis Erdman [2]": {"test_system": "M. tuberculosis Erdman", "assay": "Effect of L-glutamine on M. tuberculosis Erdman broth cultures with or without MS, Example 13", "type": "cell-based, Mycobacterium tuberculosis", "conditions": "for effect of L-glutamine on M. tuberculosis growth without MS: no MS, FIG. 14; for effect of L-glutamine on M. tuberculosis growth with subinhibitory MS: subinhibitory (minimally inhibitory, FIG. 15) MS", "protocol": "L-glutamine (L-GLN) was added to MS-treated cultures of M. tuberculosis Erdman."}, "glutamine synthetase": {"test_system": "glutamine synthetase", "conditions": "Manning et al., 1969; cited from earlier work"}, "[3]": {"test_system": "L. pneumophila Philadelphia 1", "conditions": "0.2, 2, 20, 200 μM MS; FIG. 11"}, "THP-1 cells": {"test_system": "THP-1 cells", "assay": "Growth/toxicity in human monocyte cell line THP-1, Examples 14 and 15", "type": "cell-based", "conditions": "for effect on growth rate of THP-1 cells: 200 μM MS, FIG. 19"}, "M. tuberculosis Erdman [4]": {"test_system": "M. tuberculosis Erdman", "conditions": "200 μM MS"}, "M. phlei": {"test_system": "M. phlei", "conditions": "0.2, 2, 20, 200 μM MS; FIG. 9"}, "[5]": {"biological_target": "T1, extracellular glutamine synthetase (Mycobacterium avium, UniProt A0ACG7XF78)", "conditions": "M. avium vs highly pathogenic strains"}, "[6]": {"biological_target": "T2, extracellular glutamine synthetase (Mycobacterium tuberculosis, UniProt P9WN39)"}, "M. tuberculosis H37Rv": {"test_system": "M. tuberculosis H37Rv", "conditions": "0.2-200 μM MS; FIG. 5; similar to Erdman; listed as MS"}, "E. coli DH5α": {"test_system": "E. coli DH5α", "conditions": "0.2, 2, 20, 200 μM MS; FIG. 12"}, "M. smegmatis 1-2c": {"test_system": "M. smegmatis 1-2c", "conditions": "0.2, 2, 20, 200 μM MS; FIG. 10"}, "[7]": {"test_system": "M. tuberculosis, Erdman strain", "conditions": "2000 μM MS added at 0, 1, 2, 3, 4 weeks; FIG. 3"}, "[8]": {"biological_target": "cell-associated glutamine synthetase (Mycobacterium tuberculosis, UniProt P9WN39)", "conditions": "20 μM MS; vs untreated; FIG. 22"}, "M. bovis BCG": {"test_system": "M. bovis BCG", "conditions": "FIG. 7; listed as MS"}, "[9]": {"biological_target": "T2, extracellular glutamine synthetase", "assay": "biochemical", "conditions": "read-out: extracellular GS activity relative to untreated cultures"}, "[10]": {"biological_target": "T1, extracellular glutamine synthetase", "assay": "biochemical", "conditions": "read-out: concentration of MS required to completely inhibit glutamine synthetase activity"}, "M. tuberculosis Erdman [11]": {"test_system": "M. tuberculosis Erdman", "assay": "Control: effect of SDS on M. tuberculosis Erdman growth in broth culture (FIG. 24)", "type": "cell-based, Mycobacterium tuberculosis", "conditions": "0.1% SDS", "protocol": "In the presence of 200 μM MS, M. tuberculosis growth was inhibited by almost 1 log by two days and by nearly 2 logs by five days."}}, "note": "Entries after “also recorded” stand apart in the source; their conditions may differ. Where two headings read alike, the source gives them in different places.", "data": [{"smiles": "CS(=N)(=O)CCC(N)C(=O)O", "note": "(racemic) [DL-methionine-SR-sulfoximine, reference compound]", "values": [{"measurement": "potency in inhibiting growth of M. tuberculosis relative to L-methionine-S-sulfoximine", "setting": "M. tuberculosis Erdman [1]; FIG. 13 vs FIG. 4", "value": "about 1/4"}, {"measurement": "inhibitory effect on M. tuberculosis growth (comparison of known GS inhibitors)", "setting": "M. tuberculosis Erdman [1]", "value": "significantly weaker inhibitory effect on the growth of M. tuberculosis"}]}, {"smiles": "NC(=O)CC[C@H](N)C(=O)O", "note": "[L-glutamine]", "values": [{"measurement": "effect of L-glutamine on MS inhibition of M. tuberculosis", "setting": "M. tuberculosis Erdman [2]; inhibitory MS (2, 20, 200 μM), FIGS. 16-18", "value": "reverse the inhibitory effect of MS in a dose-dependent fashion; also recorded: reversed the inhibitory effect of MS"}, {"measurement": "effect of L-glutamine on M. tuberculosis growth without MS", "setting": "M. tuberculosis Erdman [2]", "value": "no or little influence on M. tuberculosis growth; also recorded: lack of effect"}, {"measurement": "effect of L-glutamine on M. tuberculosis growth without MS", "setting": "M. tuberculosis Erdman [2]; listed as L-GLN", "value": "no effect on the growth"}, {"measurement": "effect of L-glutamine on M. tuberculosis growth with subinhibitory MS", "setting": "M. tuberculosis Erdman [2]", "value": "no or little influence on M. tuberculosis growth; also recorded: lack of effect"}, {"measurement": "effect of L-glutamine on M. tuberculosis growth with subinhibitory MS", "setting": "M. tuberculosis Erdman [2]; listed as L-GLN", "value": "no effect on the growth"}]}, {"smiles": "C[S@](=N)(=O)CC[C@H](N)C(=O)O", "note": "[L-methionine-S-sulfoximine]", "values": [{"measurement": "inhibition of glutamine synthetase", "setting": "glutamine synthetase", "value": "inhibits glutamine synthetase"}, {"measurement": "growth inhibition of L. pneumophila", "setting": "[3]", "value": "lack of effect"}, {"measurement": "growth inhibition of M. tuberculosis Erdman in broth", "setting": "M. tuberculosis Erdman [1]; 2 μM MS", "value": "strongly inhibited"}, {"measurement": "growth inhibition of M. tuberculosis Erdman in broth", "setting": "M. tuberculosis Erdman [1]; 20 μM MS", "value": "completely inhibited"}, {"measurement": "growth inhibition of M. tuberculosis Erdman in broth", "setting": "M. tuberculosis Erdman [1]; 200 μM MS", "value": "completely inhibited"}, {"measurement": "growth inhibition of M. tuberculosis Erdman in broth, overall", "setting": "M. tuberculosis Erdman [1]; 0.2, 2, 20, 200 μM, OD540 weekly, FIG. 4, listed as MS", "value": "strongly inhibits, in dose-dependent fashion; also recorded: inhibited the growth of M. tuberculosis Erdman in broth culture at all concentrations tested"}, {"measurement": "minimal effective concentration", "setting": "M. tuberculosis Erdman [1]; Mycobacterium tuberculosis, broth culture, FIGS. 4 and 5 (Erdman and H37Rv), read-out: MS concentrations as low as ... inhibited M. tuberculosis growth", "value": 0.2, "unit": "µM"}, {"measurement": "growth and viability of THP-1 cells", "setting": "THP-1 cells; 0 or 200 μM MS", "value": "grew at the same rate and maintained high viability"}, {"measurement": "effect on growth rate of THP-1 cells", "setting": "THP-1 cells", "value": "lack of effect"}, {"measurement": "effect on growth rate of THP-1 cells", "setting": "THP-1 cells; listed as MS", "value": "no influence on the growth rate of these cells"}, {"measurement": "toxicity against THP-1 cells", "setting": "THP-1 cells; up to 200 μM MS, listed as MS", "value": "no toxicity toward a human monocyte cell line; also recorded: no evidence of toxicity against THP-1 cells; also recorded: no evident toxicity for THP-1 cells up to a concentration of 200 μM"}, {"measurement": "Colony forming units of M. tuberculosis Erdman from infected THP-1 human monocytes", "setting": "M. tuberculosis Erdman [4]; Day 0", "value": "8.58 × 10^5 CFU"}, {"measurement": "Colony forming units of M. tuberculosis Erdman from infected THP-1 human monocytes", "setting": "M. tuberculosis Erdman [4]; Day 2", "value": "6.22 × 10^5 CFU"}, {"measurement": "Colony forming units of M. tuberculosis Erdman from infected THP-1 human monocytes", "setting": "M. tuberculosis Erdman [4]; Day 5a, lysed with sodium dodecyl sulfate", "value": "4.80 × 10^5 CFU"}, {"measurement": "Colony forming units of M. tuberculosis Erdman from infected THP-1 human monocytes", "setting": "M. tuberculosis Erdman [4]; Day 5b, lysed by vortexing", "value": "4.32 × 10^5 CFU"}, {"measurement": "inhibition of intracellular M. tuberculosis growth", "setting": "M. tuberculosis Erdman [4]; by five days", "value": "~2", "unit": "logs"}, {"measurement": "inhibition of intracellular M. tuberculosis growth", "setting": "M. tuberculosis Erdman [4]; by two days", "value": "~1", "unit": "log"}, {"measurement": "growth inhibition of M. phlei", "setting": "M. phlei", "value": "lack of effect"}, {"measurement": "concentration required to inhibit GS activity compared with M. tuberculosis and M. bovis", "setting": "[5]", "value": "higher than that required to inhibit the glutamine synthetase activity of the highly pathogenic strains of M. tuberculosis and M. bovis"}, {"measurement": "preferential inhibition of extracellular over cell-associated GS activity", "setting": "[6]; 20 μM MS, extracellular vs cell-associated", "value": "preferentially inhibits extracellular GS activity"}, {"measurement": "extracellular GS activity in M. tuberculosis cultures", "setting": "[6]; 0.2-200 μM MS from week 1, FIG. 20", "value": "marked decrease in extracellular GS activity"}, {"measurement": "increase in extracellular GS activity over 3 weeks (week 1 to week 4)", "setting": "[6]; 2-200 μM MS", "value": "little or no increase in extracellular GS activity"}, {"measurement": "growth inhibition of M. tuberculosis H37Rv in broth", "setting": "M. tuberculosis H37Rv", "value": "strongly inhibits, in dose-dependent fashion"}, {"measurement": "growth inhibition of E. coli", "setting": "E. coli DH5α", "value": "lack of effect"}, {"measurement": "growth inhibition of M. smegmatis", "setting": "M. smegmatis 1-2c", "value": "lack of effect"}, {"measurement": "inhibition of M. tuberculosis growth in broth by time of addition", "setting": "[7]", "value": "inhibited the growth of M. tuberculosis in broth cultures when added up to 3 weeks following inoculation"}, {"measurement": "cell-associated GS activity", "setting": "[8]", "value": "only slightly reduced"}, {"measurement": "growth inhibition of M. bovis BCG in broth", "setting": "M. bovis BCG", "value": "strongly inhibits, in dose-dependent fashion"}, {"measurement": "activity at 20 µM", "setting": "[9]", "value": "< 25", "unit": "%"}, {"measurement": "IC100", "setting": "[10]", "value": 200, "unit": "µM"}]}, {"smiles": "CCCCCCCCCCCCOS(=O)(=O)[O-].[Na+]", "note": "[SDS, sodium dodecyl sulfate]", "values": [{"measurement": "influence of SDS on growth of M. tuberculosis in broth", "setting": "M. tuberculosis Erdman [11]", "value": "had no influence on growth of M. tuberculosis in broth culture"}]}, {"smiles": "CP(=O)(O)CC[C@H](N)C(=O)O", "note": "[phosphinothricin, reference compound]", "values": [{"measurement": "inhibitory effect on M. tuberculosis growth (comparison of known GS inhibitors)", "setting": "M. tuberculosis Erdman [1]", "value": "only a very minor inhibitory effect on M. tuberculosis growth"}]}]}
